According to patent publication US20260258025A1, “INHIBITORS OF TDP-43 AND TAU AGGREGATION” (Aquinnah Pharmaceuticals, inc., priority 2023, published 2026):

test system: tau stress granules; test: SY5Y-tT1 tau arsenite assay (tau stress granules per cell); assay type: cell-based; conditions: SY5Y-tT1 cells, 2 hours compound, 90 minutes arsenite, 50% reduction of granules per cell, read-out: IC50, Inhibitor Activity of Tau Stress Granules
Experimental: Example 91: In Vitro Efficacy Assay of Exemplary Compounds—SY5Y-tT1 Tau Arsenite/Thapsigargin Assay
• Before harvesting cells—checked to see if cells are ~80% confluency in their flask • 1. Aspirated growth media from flask. • 2. Added 4 mL of (0.25%) trypsin-EDTA (REF: 25200-056) • 3. Placed in 37° C. incubator for 5 minutes. • 4. Removed from incubator and added 11 mL growth media, washing any remaining cells adhered to the bottom of the flask. • 5. Transferred cell containing media to a 50 mL conical tube and spun for 5 minutes at 800 rpm. • 6. Aspirated supernatant and added 5 mL of growth media to cell pellet, triturating to make a homogenous cell solution. • 7. After counting cells, followed one of these plating paradigms: • (A) If treating with arsenite, plated cells at […] with tetracycline solution (5 mg/mL) added to cell solution at 1:5000 • (B) If treating with thapsigargin, plated cells at 4,000 cells/well with tetracycline solution (5 mg/mL) added to cell solution at 1:5000 • 8. Incubated at 37° C. for 48 hours.
• Solubilized all compounds to 10 mM prior to making dilution plates • 1. To a 96-well U-bottom plate (Falcon Non-Tissue Culture Treated Plates REF: 351177) added 120 μL growth media to all 96 wells, with an additional 58.2 μL to row A. • 2. Added 1.8 μL of 10 mM compound stock to wells A1-11, adding 1.8 μL of 10 mM PERKi stock (Selleck Chemistry GSK2606414 Cat No. S7307) as the control. • 3. Serially diluted 60 μL from row A down through each row, finishing with 180 μL total volume in row H. • 4. Transferred 12.5 μL of each dilution plate well to the correlating wells in cell plate, being careful not to touch cells adhered to bottom of the plate. • 5. Incubated for 2 hours.
• 1. Added 720 μL of 0.05 M sodium arsenite solution (CAS #: 7784-46-5) to 10 mL of growth media for a final concentration of […] arsenite solution, mix well. • 2. Added 12.5 μL of arsenite solution to all wells of compounds treated plate intended for arsenite treatment. • 3. Incubated at 37° C. for 90 minutes.
• Before beginning this part of the protocol: • Made 1×PBS by diluting 10× stock (10×, Phosphate buffered saline, Fisher #BP399— • 4) in sterile deionized water. • Diluted paraformaldehyde (16% Paraformaldehyde solution, Electron Microscopy Sciences #15710-S) to 4% in 1×PBS. • Diluted Hoechst stain (Life Technologies #H3570) 1:10,000 in 1×PBS (1 μL Hoechst per 10 mL 1×PBS). • Both solutions were protected from light. • 1) After compound treatment, aspirated media from cell plates and gently added in 50 μL of 4% paraformaldehyde for 10 min protected from light at room temperature. • 2) Aspirated paraformaldehyde solution and gently added 50 μL of 1:10,000 Hoechst solution to each well and incubated for 10 min protected from light at room temperature. • 3) Aspirated Hoechst solution and gently added 100 μL 1×PBS. Cover the plate with aluminum film (VWR #60941-126). • 4) Stored at 4° C. or used immediately for imaging on ThermoFisher CX7 imager.
Exemplary compounds of the disclosed herein were evaluated for efficacy for inhibitor activity of tau stress granules in the arsenite assay and quantified as drug concentration providing a 50% reduction (IC50) of granules per cell is shown in Table 4.
In Table 4 below, A indicates an IC50 (μM)<0.5 μM, B indicates an IC50 (μM) 0.5 μM to <1 μM, C indicates an IC50 (μM) 1 μM to <2 μM, and D indicates an IC50 (μM) 2 μM to <6 μM.

Compound | IC50 [nM]
Cc1cc(-c2ccc(C3CCN(C)CC3)c(OC(F)(F)F)c2)sc1C(=O)N1CC[C@H](N)C1 [Compound 112, (S)-(3-aminopyrrolidin-1-yl)(3-methyl-5-(4-(1-methylpiperidin-4-yl)-3-(trifluoromethoxy)phenyl)thiophen-2-yl)methanone] | 2000 to 6000
C=Cc1cc(-c2ccc(C3CCN(C(C)C)CC3)cc2)sc1C(=O)N1CC[C@H](N)C1 [Compound 117, (S)-(3-aminopyrrolidin-1-yl)(5-(4-(1-isopropylpiperidin-4-yl)phenyl)-3-vinylthiophen-2-yl)methanone] | 1000 to 2000
CCc1cc(-c2ccc(C3CCN(C(C)C)CC3)cc2)sc1C(=O)N1CC[C@H](N)C1 [Compound 118, (S)-(3-aminopyrrolidin-1-yl)(3-ethyl-5-(4-(1-isopropylpiperidin-4-yl)phenyl)thiophen-2-yl)methanone] | 1000 to 2000
Cc1cc(-c2ccc(C3CCN(CC4CCCCO4)CC3)cc2)sc1C(=O)N1CC[C@H](N)C1 (stereo partly drawn) [Compound 119, ((S)-3-aminopyrrolidin-1-yl)(3-methyl-5-(4-(1-((tetrahydro-2H-pyran-2-yl)methyl)piperidin-4-yl)phenyl)thiophen-2-yl)methanone] | 500 to 1000
Cc1cc(-c2ccc(C3CCN(C)CC3)cc2Cl)sc1C(=O)N1CC[C@H](N)C1 [Compound 120, (S)-(3-aminopyrrolidin-1-yl)(5-(2-chloro-4-(1-methylpiperidin-4-yl)phenyl)-3-methylthiophen-2-yl)methanone] | 1000 to 2000
Cc1cc(-c2cnc(C3CCN(C)CC3)nc2)sc1C(=O)N1CC[C@H](N)C1 [Compound 124, (S)-(3-aminopyrrolidin-1-yl)(3-methyl-5-(2-(1-methylpiperidin-4-yl)pyrimidin-5-yl)thiophen-2-yl)methanone] | < 500
Cc1cc(-c2ccc(C3CCN(C)CC3)cc2F)sc1C(=O)N1CC[C@H](N)C1 [Compound 128, (S)-(3-aminopyrrolidin-1-yl)(5-(2-fluoro-4-(1-methylpiperidin-4-yl)phenyl)-3-methylthiophen-2-yl)methanone] | 1000 to 2000
Cc1cc(-c2ccc(C3CCNCC3)cc2F)sc1C(=O)N1CC[C@H](N)C1 [Compound 129, (S)-(3-aminopyrrolidin-1-yl)(5-(2-fluoro-4-(piperidin-4-yl)phenyl)-3-methylthiophen-2-yl)methanone] | 2000 to 6000
Cc1cc(C2CCN(C)CC2)ccc1-c1cc(C)c(C(=O)N2CC[C@H](N)C2)s1 [Compound 134, (S)-(3-aminopyrrolidin-1-yl)(3-methyl-5-(2-methyl-4-(1-methylpiperidin-4-yl)phenyl)thiophen-2-yl)methanone] | 2000 to 6000
Cc1cc(-c2ccc(C3CCN(C)CC3)c(Cl)c2)sc1C(=O)N1CC[C@H](N)C1 [Compound 135, (S)-(3-aminopyrrolidin-1-yl)(5-(3-chloro-4-(1-methylpiperidin-4-yl)phenyl)-3-methylthiophen-2-yl)methanone] | 2000 to 6000
Cc1cc(-c2ccc(C3CCNCC3)c(F)c2)sc1C(=O)N1CC[C@H](N)C1 [Compound 140, (S)-(3-aminopyrrolidin-1-yl)(5-(3-fluoro-4-(piperidin-4-yl)phenyl)-3-methylthiophen-2-yl)methanone] | 500 to 1000
Cc1cc(-c2cc(C)c(C(=O)N3CC[C@H](N)C3)s2)ccc1C1CCN(C)CC1 [Compound 144, (S)-(3-aminopyrrolidin-1-yl)(3-methyl-5-(3-methyl-4-(1-methylpiperidin-4-yl)phenyl)thiophen-2-yl)methanone] | 2000 to 6000
Cc1cc(-c2ccc(C3CCN(CC4CCOCC4)CC3)cc2)sc1C(=O)N1CC[C@H](N)C1 [Compound 147, (S)-(3-aminopyrrolidin-1-yl)(3-methyl-5-(4-(1-((tetrahydro-2H-pyran-4-yl)methyl)piperidin-4-yl)phenyl)thiophen-2-yl)methanone] | < 500
Cc1cc(-c2ccc(N3CCN(C4CCCCC4)CC3)cc2)sc1C(=O)N1CC[C@H](N)C1 [Compound 148, (S)-(3-aminopyrrolidin-1-yl)(5-(4-(4-cyclohexylpiperazin-1-yl)phenyl)-3-methylthiophen-2-yl)methanone] | 1000 to 2000
Cc1cc(-c2cc(C)c(C(=O)N3CC[C@H](N)C3)s2)ccc1C1CCNCC1 [Compound 149, (S)-(3-aminopyrrolidin-1-yl)(3-methyl-5-(3-methyl-4-(piperidin-4-yl)phenyl)thiophen-2-yl)methanone] | < 500
Cc1cc(-c2ccc(N3CCN(C4CCOCC4)CC3)cc2)sc1C(=O)N1CC[C@H](N)C1 [Compound 151, (S)-(3-aminopyrrolidin-1-yl)(3-methyl-5-(4-(4-(tetrahydro-2H-pyran-4-yl)piperazin-1-yl)phenyl)thiophen-2-yl)methanone] | 2000 to 6000
Cc1cc(-c2ccc(N3CCN(C4CCOC4)CC3)cc2)sc1C(=O)N1CC[C@H](N)C1 (stereo partly drawn) [Compound 152, ((S)-3-aminopyrrolidin-1-yl)(3-methyl-5-(4-(4-(tetrahydrofuran-3-yl)piperazin-1-yl)phenyl)thiophen-2-yl)methanone] | 1000 to 2000
Cc1cc(-c2ccc(N3CCN(C4CCCC4)CC3)cc2)sc1C(=O)N1CC[C@H](N)C1 [Compound 153, (S)-(3-aminopyrrolidin-1-yl)(5-(4-(4-cyclopentylpiperazin-1-yl)phenyl)-3-methylthiophen-2-yl)methanone] | 1000 to 2000
Cc1cc(-c2ccc(N3CCN(C4CCC4)CC3)cc2)sc1C(=O)N1CC[C@H](N)C1 [Compound 158, (S)-(3-aminopyrrolidin-1-yl)(5-(4-(4-cyclobutylpiperazin-1-yl)phenyl)-3-methylthiophen-2-yl)methanone] | 1000 to 2000
Cc1cc(-c2ccc(N3CCN(C(C)C)CC3)cc2)sc1C(=O)N1CC[C@H](N)C1 [Compound 159, (S)-(3-aminopyrrolidin-1-yl)(5-(4-(4-isopropylpiperazin-1-yl)phenyl)-3-methylthiophen-2-yl)methanone] | 500 to 1000
Cc1cc(-c2ccc(N3CCNCC3)cc2)sc1C(=O)N1CC[C@H](N)C1 [Compound 162, (S)-(3-aminopyrrolidin-1-yl)(3-methyl-5-(4-(piperazin-1-yl)phenyl)thiophen-2-yl)methanone] | 1000 to 2000
Cc1cc(-c2ccc(C3CCN(C4COC4)CC3)cc2)sc1C(=O)N1CC[C@H](N)C1 [Compound 164, (S)-(3-aminopyrrolidin-1-yl)(3-methyl-5-(4-(1-(oxetan-3-yl)piperidin-4-yl)phenyl)thiophen-2-yl)methanone] | < 500
Cc1cc(-c2ccc3c(c2)CCOC3)sc1C(=O)N1CC[C@H](N)C1 [Compound 165, (S)-(3-aminopyrrolidin-1-yl)(5-(isochroman-6-yl)-3-methylthiophen-2-yl)methanone] | 500 to 1000
Cc1cc(-c2ccc(C3(N(C)C)CCOCC3)cc2)sc1C(=O)N1CC[C@H](N)C1 [Compound 166, (S)-(3-aminopyrrolidin-1-yl)(5-(4-(4-(dimethylamino)tetrahydro-2H-pyran-4-yl)phenyl)-3-methylthiophen-2-yl)methanone] | < 500
Cc1cc(-c2ccc(C3CCN(C4CCSCC4)CC3)cc2)sc1C(=O)N1CC[C@H](N)C1 [Compound 167, (S)-(3-aminopyrrolidin-1-yl)(3-methyl-5-(4-(1-(tetrahydro-2H-thiopyran-4-yl)piperidin-4-yl)phenyl)thiophen-2-yl)methanone] | 1000 to 2000
Cc1cc(-c2ccc(CN(C)C)cc2)sc1C(=O)N1CC[C@H](N)C1 [Compound 217, (S)-(3-aminopyrrolidin-1-yl)(5-(4-((dimethylamino)methyl)phenyl)-3-methylthiophen-2-yl)methanone] | 1000 to 2000
